Literature values as cited in patent publication US20220265635A1, “TREATMENT OF NEUROLOGICAL DISEASE” (Aclipse One Inc., priority 2018, published 2022).

Test system: dopamine receptors
Conditions: background description; cited from earlier work

For `CN1CCc2cccc3c2[C@H]1Cc1ccc(O)c(O)c1-3` [(6aR)-6-methyl-5,6,6a,7-tetrahydro-4H-dibenzo[de,g]quinoline-10,11-diol, reference compound], the “activity on dopamine receptors (in words)” value is listed as “strong dopamine agonist”.
